Assay results reported in ChEMBL document CHEMBL6083178, “Chemistry and pharmacological aspects of furanoid cannabinoids and related compounds: Is furanoid cannabinoids open a new dimension towards the non-psychoactive cannabinoids?” (Eur J Med Chem, 2024).

Columns and labels:
Cannabinoid receptor 2 [1] = biological target: T1, Cannabinoid receptor 2 (Homo sapiens, UniProt P34972); test: Displacement of [3H]HU-243 from human CB2 receptor assessed as inhibition constant
Cannabinoid receptor 1 [2] = biological target: T2, Cannabinoid receptor 1 (Homo sapiens, UniProt P21554); test: Displacement of [3H]CP55940 from human CB1 receptor assessed as inhibition constant
Cannabinoid receptor 2 [3] = biological target: T1, Cannabinoid receptor 2; test: Binding affinity to CB2 receptor (unknown origin) assessed as inhibition constant measured after 90 mins
Cannabinoid receptor 1 [4] = biological target: T2, Cannabinoid receptor 1; test: Displacement of [3H]CP55940 from CB1 receptor (unknown origin) assessed as inhibition constant measured after 90 mins
Cannabinoid receptor 1 [5] = biological target: Cannabinoid receptor 1 (Mus musculus, UniProt P47746); test: Displacement of [3H]CP55940 from mouse brain CB1 receptor assessed as inhibition constant
Sequence of Cannabinoid receptor 1 (Mus musculus, UniProt P47746) (P47746 whole entry): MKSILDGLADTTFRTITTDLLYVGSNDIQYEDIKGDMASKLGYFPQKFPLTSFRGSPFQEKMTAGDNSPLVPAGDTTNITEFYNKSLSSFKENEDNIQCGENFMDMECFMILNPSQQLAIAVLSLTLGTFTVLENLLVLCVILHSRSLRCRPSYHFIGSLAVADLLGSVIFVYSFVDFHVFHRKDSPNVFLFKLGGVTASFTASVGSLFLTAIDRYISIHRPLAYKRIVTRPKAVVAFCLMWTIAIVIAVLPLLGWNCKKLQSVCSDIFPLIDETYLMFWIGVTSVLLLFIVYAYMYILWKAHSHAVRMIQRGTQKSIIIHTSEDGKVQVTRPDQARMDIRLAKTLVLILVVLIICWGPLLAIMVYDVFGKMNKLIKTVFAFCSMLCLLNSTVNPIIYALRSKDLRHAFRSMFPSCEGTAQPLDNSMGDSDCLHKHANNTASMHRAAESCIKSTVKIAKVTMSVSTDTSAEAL

T2 sequence (P21554 whole entry): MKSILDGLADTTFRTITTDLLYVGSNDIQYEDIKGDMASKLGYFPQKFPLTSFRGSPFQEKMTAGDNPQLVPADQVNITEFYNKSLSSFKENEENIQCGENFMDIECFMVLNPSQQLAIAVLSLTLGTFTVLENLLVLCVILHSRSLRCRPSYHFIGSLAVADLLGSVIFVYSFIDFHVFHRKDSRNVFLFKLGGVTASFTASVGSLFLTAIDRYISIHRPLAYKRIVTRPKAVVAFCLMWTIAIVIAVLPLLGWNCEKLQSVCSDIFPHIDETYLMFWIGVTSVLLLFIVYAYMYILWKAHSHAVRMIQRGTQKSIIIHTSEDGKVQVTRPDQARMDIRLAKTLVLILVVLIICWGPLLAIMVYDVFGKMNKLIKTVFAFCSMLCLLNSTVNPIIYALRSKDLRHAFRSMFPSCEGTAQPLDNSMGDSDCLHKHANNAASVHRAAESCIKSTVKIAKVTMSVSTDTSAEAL
T1 sequence (P34972 whole entry): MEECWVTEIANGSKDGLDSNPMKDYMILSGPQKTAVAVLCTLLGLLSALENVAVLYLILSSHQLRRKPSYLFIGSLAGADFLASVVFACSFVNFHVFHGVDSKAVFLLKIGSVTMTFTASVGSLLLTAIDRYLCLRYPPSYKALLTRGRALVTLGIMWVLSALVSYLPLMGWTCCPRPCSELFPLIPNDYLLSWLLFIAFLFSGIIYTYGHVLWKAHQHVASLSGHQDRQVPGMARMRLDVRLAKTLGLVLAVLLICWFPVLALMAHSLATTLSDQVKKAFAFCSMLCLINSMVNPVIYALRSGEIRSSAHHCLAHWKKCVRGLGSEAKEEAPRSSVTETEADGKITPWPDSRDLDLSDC

CCCCCc1cc(O)c(C/C=C(\C)CCC=C(C)C)c(O)c1 [CANNABIGEROL]
Ki (Cannabinoid receptor 2 [1]): 100 nM | Ki (Cannabinoid receptor 1 [2]): 400 nM

CCCc1cc(O)c2c(c1)OC(C)(C)[C@@H]1CCC(C)=C[C@@H]21 [TETRAHYDROCANNABIVARIN]
Ki (Cannabinoid receptor 1 [2]): 80 nM

CCCCCc1cc(O)c2c(c1)OC(C)(CCC=C(C)C)C=C2 (configuration not stated) [CANNABICHROMENE]
Ki (Cannabinoid receptor 2 [3]): 200 nM | Ki (Cannabinoid receptor 1 [4]): 700 nM

CCCCCc1cc(O)c2c(c1)OC(C)(C)c1ccc(C)cc1-2 [CANNABINOL]
Ki (Cannabinoid receptor 1 [2]): 100 nM

C=C(C)[C@@H]1CCC(C)=C[C@H]1c1c(O)cc(CCCCC)cc1O [CANNABIDIOL]
Ki (Cannabinoid receptor 1 [5]): 4.4 µM
